Assay results from ChEMBL document CHEMBL1201862, “PubChem BioAssay data set” (2004).
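Following 48 hours of exposure in 96-well plates, responses at five concentrations were used to interpolate endpoints linearly. Here, GI50 denotes the concentration required for 50% inhibition of growth.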 Activity calls are given as the source filed them. Rule as the data show it: active = GI50 up to about 1.1 µM and inactive = higher.

What was measured:
Test in all cases: inhibition of tumour cell growth, NCI panel, 48 h
CAKI-1 = system: CAKI-1
KM12 = system: KM12
SW-620 = system: SW-620
786-0 = system: 786-0
SF-295 = system: SF-295
SF-268 = system: SF-268
A549 = system: A549
SR = system: SR
HCT-15 = system: HCT-15
NCI-H23 = system: NCI-H23
MDA-MB-435 = system: MDA-MB-435
SK-OV-3 = system: SK-OV-3
SK-MEL-2 = system: SK-MEL-2
SNB-75 = system: SNB-75
BT-549 = system: BT-549
CCRF-CEM = system: CCRF-CEM
NCI-H226 = system: NCI-H226
LOX IMVI = system: LOX IMVI
M14 = system: M14
NCI-H460 = system: NCI-H460
OVCAR-3 = system: OVCAR-3
TK-10 = system: TK-10
HOP-62 = system: HOP-62
EKVX = system: EKVX
MCF7 = system: MCF7
SN12C = system: SN12C
MOLT-4 = system: MOLT-4
RPMI-8226 = system: RPMI-8226
MDA-MB-231 = system: MDA-MB-231
PC-3 = system: PC-3
SK-MEL-5 = system: SK-MEL-5
Hs-578T = system: Hs-578T
HT-29 = system: HT-29
DU-145 = system: DU-145
K562 = system: K562
OVCAR-5 = system: OVCAR-5
NCI/ADR-RES = system: NCI/ADR-RES
U-251 = system: U-251
A498 = system: A498
HOP-92 = system: HOP-92
SNB-19 = system: SNB-19
OVCAR-8 = system: OVCAR-8
HL-60 = system: HL-60
HCT-116 = system: HCT-116
UACC-257 = system: UACC-257
SF-539 = system: SF-539
T47D = system: T47D
ACHN = system: ACHN
UACC-62 = system: UACC-62
COLO 205 = system: COLO 205
SK-MEL-28 = system: SK-MEL-28
UO-31 = system: UO-31
IGROV-1 = system: IGROV-1

In the case of `O=c1[nH]c2ccccc2c(=O)n1/N=C/c1ccc(O)cc1`, the GI50 (CAKI-1) was > 100 µM (inactive), the GI50 (KM12) was > 100 µM (inactive) and the GI50 (SW-620) was > 100 µM (inactive). The GI50 (786-0) was 30.8 µM (inactive), the GI50 (SF-295) was 50.7 µM (inactive) and the GI50 (SF-268) was 42.2 µM (inactive). The GI50 (A549) was > 100 µM (inactive), the GI50 (SR) was > 100 µM (inactive) and the GI50 (HCT-15) was > 100 µM. For the same molecule, the GI50 (NCI-H23) was > 100 µM (inactive), the GI50 (MDA-MB-435) was > 100 µM (inactive) and the GI50 (SK-OV-3) was > 100 µM (inactive). For the same molecule, the GI50 (SK-MEL-2) was 66.7 µM (inactive), the GI50 (SNB-75) was 41.4 µM (inactive) and the GI50 (BT-549) was 64.3 µM (inactive). For the same molecule, the GI50 (CCRF-CEM) was 66.4 µM (inactive), the GI50 (NCI-H226) was > 100 µM (inactive) and the GI50 (LOX IMVI) was 60.4 µM (inactive). For the same molecule, the GI50 (M14) was > 100 µM (inactive), the GI50 (NCI-H460) was > 100 µM (inactive) and the GI50 (OVCAR-3) was > 100 µM (inactive). The GI50 (TK-10) was > 100 µM (inactive), the GI50 (HOP-62) was 20.9 µM (inactive) and the GI50 (EKVX) was > 100 µM (inactive). For the same molecule, the GI50 (MCF7) was > 100 µM (inactive), the GI50 (SN12C) was 55.2 µM (inactive) and the GI50 (MOLT-4) was > 100 µM (inactive). The GI50 (RPMI-8226) was > 100 µM (inactive), the GI50 (MDA-MB-231) was 45.5 µM (inactive) and the GI50 (PC-3) was 73.5 µM (inactive). For the same molecule, the GI50 (SK-MEL-5) was > 100 µM (inactive), the GI50 (Hs-578T) was 31.7 µM (inactive) and the GI50 (HT-29) was > 100 µM (inactive). For the same molecule, the GI50 (DU-145) was > 100 µM (inactive), the GI50 (K562) was > 100 µM (inactive) and the GI50 (OVCAR-5) was > 100 µM (inactive). The GI50 (NCI/ADR-RES) was 50.9 µM (inactive), the GI50 (U-251) was 79.4 µM (inactive) and the GI50 (A498) was > 100 µM (inactive). For the same molecule, the GI50 (HOP-92) was 26.1 µM (inactive), the GI50 (SNB-19) was 36 µM (inactive) and the GI50 (OVCAR-8) was 48.2 µM (inactive). The GI50 (HL-60) was > 100 µM (inactive), the GI50 (HCT-116) was > 100 µM (inactive) and the GI50 (UACC-257) was > 100 µM (inactive). For the same molecule, the GI50 (SF-539) was 66.5 µM (inactive), the GI50 (T47D) was > 100 µM (inactive) and the GI50 (ACHN) was > 100 µM (inactive). The GI50 (UACC-62) was 42.4 µM (inactive), the GI50 (COLO 205) was > 100 µM (inactive) and the GI50 (SK-MEL-28) was > 100 µM (inactive). For the same molecule, the GI50 (UO-31) was > 100 µM (inactive) and the GI50 (IGROV-1) was > 100 µM (inactive).
